Experimental data as given in patent publication US11098072B2, “Alkenyl and beta-substituted phosphonates as antimicrobial agents” (The George Washington University, priority 2017, dated 2021).
Converted amounts (≈) assume the structure as drawn. Like-named read-outs stand apart in the source and are kept apart here.

Assays:
P. falciparum = test: Growth inhibition against P. falciparum; assay type: cell-based; conditions: for IC50: Plasmodium falciparum
P. falciparum DXR = target: T1, P. falciparum DXR (Plasmodium falciparum, UniProt Q8IKG4); test: Inhibition of P. falciparum DXR enzyme; assay type: biochemical; conditions: for Pf DXR (% Residue): percent remaining enzyme activity at 100 μM compound
T1 sequence (Q8IKG4 73-488): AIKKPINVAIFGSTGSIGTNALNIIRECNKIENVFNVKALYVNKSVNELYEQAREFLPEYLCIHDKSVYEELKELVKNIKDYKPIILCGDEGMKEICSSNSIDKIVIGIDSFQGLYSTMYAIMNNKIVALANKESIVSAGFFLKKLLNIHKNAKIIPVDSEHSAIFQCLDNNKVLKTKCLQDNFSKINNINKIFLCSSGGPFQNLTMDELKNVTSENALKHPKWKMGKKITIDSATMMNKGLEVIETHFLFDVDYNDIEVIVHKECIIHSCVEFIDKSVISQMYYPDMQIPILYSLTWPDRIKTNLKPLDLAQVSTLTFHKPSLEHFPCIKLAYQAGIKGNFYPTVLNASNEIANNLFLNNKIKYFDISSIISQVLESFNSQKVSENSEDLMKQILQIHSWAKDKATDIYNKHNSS

[1] = tested on: P. falciparum had1 mutant strain; assay type: cell-based; conditions: in words
Mtb = Mtb growth inhibition (MIC99) in 7H9 and GAST-Fe media; assay type: cell-based, M. tuberculosis; conditions: Mycobacterium tuberculosis
Procedure: Selected analogs were tested for the growth inhibition against P. falciparum and Mtb in both rich media (7H9) and minimal media (GAST-Fe) following reported procedures.

Mtb DXR = Mtb DXR (Mycobacterium tuberculosis, UniProt P9WNS1); test: Inhibition of Mtb DXR enzyme; assay type: biochemical, M. tuberculosis; conditions: percent remaining enzyme activity at 100 μM compound
Chain of Mtb DXR (P9WNS1 whole entry): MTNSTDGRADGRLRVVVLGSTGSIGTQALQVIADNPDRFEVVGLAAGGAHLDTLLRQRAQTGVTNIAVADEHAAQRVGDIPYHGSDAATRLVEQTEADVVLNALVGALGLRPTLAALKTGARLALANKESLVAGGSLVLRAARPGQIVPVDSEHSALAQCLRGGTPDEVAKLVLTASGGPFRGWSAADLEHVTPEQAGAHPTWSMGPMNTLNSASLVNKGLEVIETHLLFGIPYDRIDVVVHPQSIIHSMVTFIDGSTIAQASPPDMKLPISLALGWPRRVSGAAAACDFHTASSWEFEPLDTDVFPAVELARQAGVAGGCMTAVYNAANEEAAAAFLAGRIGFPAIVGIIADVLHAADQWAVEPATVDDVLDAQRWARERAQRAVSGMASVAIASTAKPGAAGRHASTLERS
Procedure: Phosphonic acid salts and prodrugs were evaluated as inhibitors of DXR from Mtb and P. falciparum and the results are shown in Table 6. Initially, the percent remaining enzyme activity was studied using a treatment of each compound at a single concentration of 100 μM. […] In general, the compounds display greater inhibition of DXR from P. falciparum compared with activity against the Mtb homolog.

HepG2 cells = test: HepG2 cell inhibition (cytotoxicity) assay; assay type: cell-based; conditions: Homo sapiens, HepG2; Table 6, cytotoxicity; read-out: HepG2 IC50
Procedure: For cytotoxicity assays, HepG2 cells (ATCC HB-8065) were grown in DMEM supplemented with 4 mM L-glutamine (Gibco #11966-025) with either 4.5 g/L D-glucose or 1.8 g/L galactose as carbon source. Cells were trypsinized, resuspended in the respective medium (DMEM/glutamine/glucose or DMEM/glutamine/galactose) to 4×10^5 cells/mL and 50 μL/well transferred to flat-bottom white opaque tissue culture plates (Falcon #353296) containing 50 μL/well of the respective medium with test compound. Compound concentrations were two-fold dilutions ranging from 50 μM to 0.049 μM as well as the drug-free DMSO-only control. All concentrations were tested in duplicate for each carbon source. After 24 h incubation at 5% CO2, 37° C., 10 μL/well of Celltiter-Glo reagent (Promega #G9241) was added and luminescence recorded after 20 min incubation in the dark.

[2] = Table 4, growth inhibition, read-out: Pf IC50
[3] = Table 2, phosphonic acid salts, read-out: Pf DXR IC50
[4] = Table 6, growth inhibition, read-out: P.f. IC50
[5] = minimal media (GAST-Fe), read-out: Mtb MIC99 Gast/Fe
[6] = rich media (7H9), read-out: Mtb MIC99 7H9
[7] = Table 3, diethyl phosphonate analogs
[8] = Table 3, diethyl phosphonate analogs, read-out: P.f. IC50

Row | Structure (SMILES) | IC50 (P. falciparum; [2]) [µM] | IC50 (P. falciparum; [4]) [µg/mL] | MIC99 (Mtb; [6]) [µg/mL] | other results
1 | CC(=O)N(C/C=C/P(=O)(OCOC(=O)C(C)(C)C)OCOC(=O)C(C)(C)C)OCc1ccc(-c2ccccc2)cc1 [Compound 19g, [({[(2,2-dimethylpropanoyl)oxy]methoxy}[(1E)-3-{N-[(4-phenylphenyl)methoxy]acetamido}prop-1-en-1-yl]phosphoryl)oxy]methyl 2,2-dimethylpropanoate] | 43.2 |  |  | 
2 | CC(=O)N(C/C=C/P(=O)([O-])O)OCc1ccc(C(C)C)cc1.[Na+] [Compound 16e, Sodium hydrogen [(1E)-3-(N-{[4-(propan-2-yl)phenyl]methoxy}acetamido)prop-1-en-1-yl]phosphonate] | 1.1 |  |  | IC50 (P. falciparum DXR; [3]): 2.11 µM; resistance of had1 parasites compared with wild-type [1]: more resistant
3 | CC(C)(C)C(=O)OCOP(=O)(/C=C/CN(O)C(=O)Cc1ccccc1)OCOC(=O)C(C)(C)C [Compound 33b, [({[(2,2-dimethylpropanoyl)oxy]methoxy}[(1E)-3-(N-hydroxy-2-phenylacetamido)prop-1-en-1-yl]phosphoryl)oxy]methyl 2,2-dimethylpropanoate] |  | 0.152 | 100 (≈ 200 µM) | MIC99 (Mtb; [5]): 74 µg/mL (≈ 148 µM)
4 | CCOP(=O)(/C=C/CN(O)C(=O)CCc1ccccc1)OCC [Compound 31c, Diethyl [(1E)-3-(N-hydroxy-3-phenylpropanamido)prop-1-en-1-yl]phosphonate] |  | > 100 | > 100 | MIC99 (Mtb; [5]): > 100 µg/mL
5 | CC(=O)N(C/C=C/P(=O)(OCOC(=O)C(C)(C)C)OCOC(=O)C(C)(C)C)OCc1ccc(C(C)C)cc1 [Compound 19e, [({[(2,2-dimethylpropanoyl)oxy]methoxy}[(1E)-3-(N-{[4-(propan-2-yl)phenyl]methoxy}acetamido)prop-1-en-1-yl]phosphoryl)oxy]methyl 2,2-dimethylpropanoate] | 55.1 |  |  | 
6 | CCOP(=O)(/C=C/CN(O)C(=O)C(F)(F)F)OCC [Compound 11b, Diethyl [(1E)-3-(2,2,2-trifluoro-N-hydroxyacetamido)prop-1-en-1-yl]phosphonate] |  |  |  | P.f. IC50 (P. falciparum; [7]): >100 µg/mL
7 | O=C(Cc1ccccc1)N(O)C/C=C/P(=O)([O-])O.[Na+] [Compound 32b, Sodium hydrogen [(1E)-3-(N-hydroxy-2-phenylacetamido)prop-1-en-1-yl]phosphonate] |  | 0.137 | > 100 | Mtb Dxr (% Residue) (Mtb DXR): (33.6) %; IC50 (P. falciparum DXR; Table 6, N-acyl analogs, read-out: Pf Dxr IC50): 0.17 µM
8 | CCOP(=O)(/C=C/CN(OCc1ccc(-c2ccccc2)cc1)C(C)=O)OCC [Compound 15g, Diethyl [(1E)-3-{N-[(4-phenylphenyl)methoxy]acetamido}prop-1-en-1-yl]phosphonate] |  |  |  | IC50 (P. falciparum; [8]): 13.7 µg/mL
9 | CCOP(=O)(/C=C/CN(O)C=O)OCC [Compound 11a, Diethyl [(1E)-3-(N-hydroxyformamido)prop-1-en-1-yl]phosphonate] |  |  |  | P.f. IC50 (P. falciparum; [7]): >100 µg/mL
10 | COC(=O)N(O)C/C=C/P(=O)(O)O [Compound 12c, Diammonium [(1E)-3-[hydroxy(methoxycarbonyl)amino]prop-1-en-1-yl]phosphonate] |  |  |  | IC50 (P. falciparum; read-out: Pf IC50): 28.6 µM; IC50 (P. falciparum DXR; [3]): 14.5 µM
11 | CC(C)(C)C(=O)OCOP(=O)(/C=C/CN(O)C(=O)c1ccccc1)OCOC(=O)C(C)(C)C [Compound 33a, [({[(2,2-dimethylpropanoyl)oxy]methoxy}[(1E)-3-(N-hydroxy-1-phenylformamido)prop-1-en-1-yl]phosphoryl)oxy]methyl 2,2-dimethylpropanoate] |  | 0.097 | 50 (≈ 103 µM) | IC50 (HepG2 cells): > 50 µM; resistance of had1 parasites compared with wild-type [1]: more resistant
12 | CCOP(=O)(/C=C/CN(O)C(=O)OC)OCC [Compound 11c, Methyl N-[(2E)-3-(diethoxyphosphoryl)prop-2-en-1-yl]-N-hydroxycarbamate] |  |  |  | P.f. IC50 (P. falciparum; [7]): >100 µg/mL
13 | CCOP(=O)(/C=C/CN(O)C(=O)c1ccccc1)OCC [Compound 31a, Diethyl [(1E)-3-(N-hydroxy-1-phenylformamido)prop-1-en-1-yl]phosphonate] |  | > 100 | > 100 | MIC99 (Mtb; [5]): > 100 µg/mL
14 | CC(C)(C)C(=O)OCOP(=O)(/C=C/CN(O)C(=O)CCCc1ccccc1)OCOC(=O)C(C)(C)C [Compound 33d, [({[(2,2-dimethylpropanoyl)oxy]methoxy}[(1E)-3-(N-hydroxy-4-phenylbutanamido)prop-1-en-1-yl]phosphoryl)oxy]methyl 2,2-dimethylpropanoate] |  | 2.4 | > 100 | MIC99 (Mtb; [5]): 37 µg/mL (≈ 70.1 µM)
15 | CC(=O)N(C/C=C/P(=O)(OCOC(=O)C(C)(C)C)OCOC(=O)C(C)(C)C)OCc1ccc2ccccc2c1 [Compound 19f, [({[(2,2-dimethylpropanoyl)oxy]methoxy}[(1E)-3-{N-[(naphthalen-2-yl)methoxy]acetamido}prop-1-en-1-yl]phosphoryl)oxy]methyl 2,2-dimethylpropanoate] | 49.9 |  |  | 
16 | COC(=O)N(O)C/C=C/P(=O)(OCOC(=O)C(C)(C)C)OCOC(=O)C(C)(C)C [Compound 18c, [({[(2,2-dimethylpropanoyl)oxy]methoxy}[(1E)-3-[hydroxy(methoxycarbonyl)amino]prop-1-en-1-yl]phosphoryl)oxy]methyl 2,2-dimethylpropanoate] | 23.7 |  |  | 
17 | CCOP(=O)(/C=C/CN(OCc1ccc2ccccc2c1)C(C)=O)OCC [Compound 15f, Diethyl [(1E)-3-{N-[(naphthalen-2-yl)methoxy]acetamido}prop-1-en-1-yl]phosphonate] |  |  |  | IC50 (P. falciparum; [8]): 29.6 µg/mL
18 | O=C(N(O)C/C=C/P(=O)([O-])O)C(F)(F)F.[Na+] [Compound 12b, Sodium hydrogen [(1E)-3-(2,2,2-trifluoro-N-hydroxyacetamido)prop-1-en-1-yl]phosphonate] | 113 |  |  | Pf DXR (% Residue) (P. falciparum DXR): (36.96) %
19 | CC(C)(C)C(=O)OCOP(=O)(/C=C/CN(O)C(=O)C(F)(F)F)OCOC(=O)C(C)(C)C [Compound 18b, [({[(2,2-dimethylpropanoyl)oxy]methoxy}[(1E)-3-(2,2,2-trifluoro-N-hydroxyacetamido)prop-1-en-1-yl]phosphoryl)oxy]methyl 2,2-dimethylpropanoate] | 14.2 |  |  | 
20 | CCOP(=O)(/C=C/CN(OCc1ccc(C(C)C)cc1)C(C)=O)OCC [Compound 15e, Diethyl [(1E)-3-(N-{[4-(propan-2-yl)phenyl]methoxy}acetamido)prop-1-en-1-yl]phosphonate] |  |  |  | IC50 (P. falciparum; [8]): 21.1 µg/mL
21 | CC(=O)N(C/C=C/P(=O)(O)O)OC(C)c1ccccc1 (centres unmarked) [Compound 16d, Sodium hydrogen [(1E)-3-[N-(1-phenylethoxy)acetamido]prop-1-en-1-yl]phosphonate] | 1.2 |  |  | IC50 (P. falciparum DXR; [3]): 2.54 µM
22 | CCOP(=O)(/C=C/CN(O)C(=O)Cc1ccccc1)OCC [Compound 31b, Diethyl [(1E)-3-(N-hydroxy-2-phenylacetamido)prop-1-en-1-yl]phosphonate] |  | 110 | > 100 | 
23 | CCOP(=O)(/C=C/CN(OC(C)c1ccccc1)C(C)=O)OCC (centres unmarked) [Compound 15d, Diethyl [(1E)-3-[N-(1-phenylethoxy)acetamido]prop-1-en-1-yl]phosphonate] |  |  |  | IC50 (P. falciparum; [8]): 23.5 µg/mL
24 | CC(=O)N(C/C=C/P(=O)([O-])O)OCc1ccc2ccccc2c1.[Na+] [Compound 16f, Sodium hydrogen [(1E)-3-{N-[(naphthalen-2-yl)methoxy]acetamido}prop-1-en-1-yl]phosphonate] | 26 |  |  | Pf DXR (% Residue) (P. falciparum DXR): (25) %
25 | CCOP(=O)(/C=C/CN(O)C(=O)CCCc1ccccc1)OCC [Compound 31d, Diethyl [(1E)-3-(N-hydroxy-4-phenylbutanamido)prop-1-en-1-yl]phosphonate] |  | 11.1 | > 100 | MIC99 (Mtb; [5]): > 100 µg/mL
26 | CC(=O)N(C/C=C/P(=O)(O)O)OCc1ccc(-c2ccccc2)cc1 [Compound 16g, Sodium hydrogen [(1E)-3-{N-[(4-phenylphenyl)methoxy]acetamido}prop-1-en-1-yl]phosphonate] | 2.3 |  |  | IC50 (P. falciparum DXR; [3]): 4.53 µM
